# Laboratory results published in BindingDB's records for doi:10.1016/j.bmcl.2018.05.060 (Universidad De Granada, 2018).
# Target: Choline kinase alpha (Homo sapiens, UniProt P35790)
# Experiment: Inhibition of human choline kinase alpha1 using [methyl-14C]choline as substrate assessed as reduction in rate of incorporation of 14C from [methyl-14C]choline into phosphocholine preincubated for 5 mins followed by substrate addition measured after 10 mins by scintillation counting
# Sequence of Choline kinase alpha (P35790 whole entry): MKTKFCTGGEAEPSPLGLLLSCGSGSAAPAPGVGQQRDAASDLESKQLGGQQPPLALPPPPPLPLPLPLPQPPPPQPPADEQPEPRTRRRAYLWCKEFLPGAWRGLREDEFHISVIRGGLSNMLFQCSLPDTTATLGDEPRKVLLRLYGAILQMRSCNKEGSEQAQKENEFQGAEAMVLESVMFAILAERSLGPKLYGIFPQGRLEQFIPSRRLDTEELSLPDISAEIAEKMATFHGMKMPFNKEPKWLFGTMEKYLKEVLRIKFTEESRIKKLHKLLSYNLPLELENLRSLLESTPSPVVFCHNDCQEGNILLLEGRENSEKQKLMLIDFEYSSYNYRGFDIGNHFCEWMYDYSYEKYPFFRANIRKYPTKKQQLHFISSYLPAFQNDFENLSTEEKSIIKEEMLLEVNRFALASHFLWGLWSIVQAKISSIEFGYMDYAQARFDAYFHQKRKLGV
compound,measurement,value
CN(c1ccccc1)c1cc[n+](Cc2ccc(OCCOc3ccc(C[n+]4ccc(N(C)c5ccccc5)c5ccccc54)cc3)cc2)c2ccccc12,IC50,6.85 µM
